Data as given in ChEMBL document CHEMBL6083238, “Design, synthesis and biological evaluation of novel benzocoumarin derivatives as potent inhibitors of MAO-B activity” (Bioorg Med Chem Lett, 2024).

What was measured:
[1] = target: T1, MAO-A (amine oxidase [flavin-containing] A) (Homo sapiens, UniProt P21397); assay: in vitro; settings: human MAO-A enzyme, probe p-tyramine
T1 sequence (P21397 whole entry): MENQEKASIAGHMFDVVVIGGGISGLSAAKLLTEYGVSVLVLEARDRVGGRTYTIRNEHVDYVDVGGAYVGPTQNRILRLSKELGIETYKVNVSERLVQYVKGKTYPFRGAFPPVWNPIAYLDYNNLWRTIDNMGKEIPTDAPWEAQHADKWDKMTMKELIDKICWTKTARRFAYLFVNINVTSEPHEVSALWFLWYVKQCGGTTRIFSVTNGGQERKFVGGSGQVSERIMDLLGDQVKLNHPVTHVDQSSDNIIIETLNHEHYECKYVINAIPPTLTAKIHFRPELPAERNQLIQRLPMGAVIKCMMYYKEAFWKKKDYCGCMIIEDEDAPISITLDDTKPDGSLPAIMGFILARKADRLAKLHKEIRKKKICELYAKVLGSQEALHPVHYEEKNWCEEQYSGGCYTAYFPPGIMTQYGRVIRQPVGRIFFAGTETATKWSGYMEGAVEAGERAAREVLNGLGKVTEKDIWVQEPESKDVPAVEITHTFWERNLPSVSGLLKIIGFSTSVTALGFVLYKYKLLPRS
Description: Inhibition of human MAO-A using p-tyramine as substrate at 100 uM by amplex red staining based fluorometric analysis relative to control

[2] = target: T2, Amine oxidase [flavin-containing] B (Homo sapiens, UniProt P27338)
T2 sequence (P27338 whole entry): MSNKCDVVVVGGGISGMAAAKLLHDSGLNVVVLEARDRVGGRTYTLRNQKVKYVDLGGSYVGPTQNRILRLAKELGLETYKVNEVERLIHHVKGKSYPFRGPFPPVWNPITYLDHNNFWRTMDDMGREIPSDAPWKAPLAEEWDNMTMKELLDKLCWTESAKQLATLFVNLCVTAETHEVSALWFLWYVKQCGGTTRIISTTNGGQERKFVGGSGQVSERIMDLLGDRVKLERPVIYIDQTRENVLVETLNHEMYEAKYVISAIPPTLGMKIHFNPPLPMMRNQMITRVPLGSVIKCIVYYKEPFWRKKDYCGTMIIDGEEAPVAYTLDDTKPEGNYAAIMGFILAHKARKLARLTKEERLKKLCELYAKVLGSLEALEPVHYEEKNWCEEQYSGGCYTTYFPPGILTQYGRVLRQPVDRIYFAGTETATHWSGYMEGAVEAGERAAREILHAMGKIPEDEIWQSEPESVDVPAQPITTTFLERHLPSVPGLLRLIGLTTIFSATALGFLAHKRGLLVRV
Description: Inhibition of human MAO-B using p-tyramine as substrate by amplex red staining based fluorometric analysis

[3] = target: T3, Amine oxidase [flavin-containing] A (Homo sapiens, UniProt P21397)
T3 sequence (P21397 whole entry): T1 sequence (P21397 whole entry)
Description: Inhibition of human MAO-A using p-tyramine as substrate by amplex red staining based fluorometric analysis

Structure (SMILES) | inhibition at 100 µM [1] [%] | IC50 [2] [µM] | IC50 [3] [µM]
COc1ccc(-c2cc3cc4ccccc4cc3oc2=O)cc1 | 3.85 | 48.1 | –
CC(=O)Oc1ccc(-c2cc3ccc4ccccc4c3oc2=O)cc1OC(C)=O | – | 13.9 | 78.3
CC(=O)Oc1ccc(-c2cc3cc4ccccc4cc3oc2=O)cc1OC(C)=O | – | 54.4 | 97.2
COc1ccc(-c2cc3ccc4ccccc4c3oc2=O)cc1OC | 24 | 0.241 | –

The remaining lines, values ahead:

inhibition at 100 µM [1] [%] | IC50 [2] [µM] | IC50 [3] [µM] | Structure (SMILES)
36.6 | 1.41 | – | COc1ccc(-c2cc3cc4ccccc4cc3oc2=O)cc1OC
15.3 | – | – | COc1ccc(-c2cc3ccc4ccccc4c3oc2=O)cc1
